Active and inactive are the calls of the source. The calls are words filed in the database; no cut-off is given here.

Data on two compounds can be found in ChEMBL document CHEMBL3822457, “Synthesis and biological analysis of novel glycoside derivatives of l-AEP, as targeted antibacterial agents” (2016).

Test [1] relates to Klebsiella aerogenes. The test can be described thus: Antibacterial activity against Enterobacter aerogenes ATCC 13048 at 2 mg/ml in presence of DM1 and IPTG at pH 7.2. It is filed as functional, organism-based.
The subject of test [2] is Cronobacter sakazakii. The test can be described thus: Antibacterial activity against Cronobacter sakazakii ATCC 29544 at 2 mg/ml in presence of DM1 and IPTG at pH 7.2. The format is functional.
Test [3] has as its system Klebsiella pneumoniae. The test can be described thus: Antibacterial activity against Klebsiella pneumoniae ATCC 13882 at 2 mg/ml in presence of DM1 and IPTG at pH 7.2. The format is functional, organism-based.
Test [4] relates to Salmonella typhimurium. The test can be described thus: Antibacterial activity against Salmonella enterica serovar Typhimurium ATCC 14028 at 2 mg/ml in presence of DM1 and IPTG at pH 7.2. To be noted: Salmonella enterica subsp. enterica serovar Typhimurium. The format is functional, organism-based.
Test [5] concerns Salmonella enterica subsp. enterica serovar Virchow. The test can be described thus: Antibacterial activity against Salmonella enterica serovar Virchow ATCC 5742 at 2 mg/ml in presence of DM1 and IPTG at pH 7.2. The format is functional.
Test [6] concerns Klebsiella aerogenes. The test can be described thus: Antibacterial activity against Enterobacter aerogenes ATCC 13048 at 2 mg/ml in presence of DM1 at pH 7.2 in absence of IPTG. The format is functional, organism-based.
The subject of test [7] is Cronobacter sakazakii. The test can be described thus: Antibacterial activity against Cronobacter sakazakii ATCC 29544 at 2 mg/ml in presence of DM1 at pH 7.2 in absence of IPTG. It is filed as functional.
Test [8] has as its system Klebsiella pneumoniae. The test can be described thus: Antibacterial activity against Klebsiella pneumoniae ATCC 13882 at 2 mg/ml in presence of DM1 at pH 7.2 in absence of IPTG. The format is functional, organism-based.
The test system of test [9] is Salmonella typhimurium. The test can be described thus: Antibacterial activity against Salmonella enterica serovar Typhimurium ATCC 14028 at 2 mg/ml in presence of DM1 at pH 7.2 in absence of IPTG. It is filed as functional, organism-based. The following applies: Salmonella enterica subsp. enterica serovar Typhimurium.
The subject of test [10] is Salmonella enterica subsp. enterica serovar Virchow. Put plainly: Antibacterial activity against Salmonella enterica serovar Virchow ATCC 5742 at 2 mg/ml in presence of DM1 at pH 7.2 in absence of IPTG. It is filed as functional.
In test [11] the test system is Pseudomonas aeruginosa. Put plainly: Antibacterial activity against Pseudomonas aeruginosa ATCC 27853 in presence of DM1 at pH 6.9. The format is functional.
Test [12] has as its system Proteus mirabilis. The test can be described thus: Antibacterial activity against Proteus mirabilis ATCC 14253 in presence of DM1 at pH 6.9. It is filed as functional.
For test [13], the system named is Klebsiella pneumoniae. Put plainly: Antibacterial activity against Klebsiella pneumoniae ATCC 13882 in presence of DM1 at pH 6.9. The format is functional.
Test [14] concerns Cronobacter sakazakii. Put plainly: Antibacterial activity against Cronobacter sakazakii ATCC 29544 in presence of DM1 at pH 6.9. The format is functional.
Test [15] has as its system Klebsiella aerogenes. Put plainly: Antibacterial activity against Enterobacter aerogenes ATCC 13048 in presence of DM1 at pH 6.9. The format is functional.
The test system of test [16] is Salmonella typhimurium. Put plainly: Antibacterial activity against Salmonella enterica serovar Typhimurium ATCC 14028 in presence of DM1 at pH 6.9. It is filed as functional, Salmonella enterica subsp. enterica serovar Typhimurium.
Test [17] is described as follows: Antibacterial activity against Salmonella enterica serovar Virchow ATCC 5742 in presence of DM1 at pH 6.9. It is filed as functional, Salmonella enterica subsp. enterica serovar Virchow.
The subject of test [18] is Serratia marcescens. The test can be described thus: Antibacterial activity against Serratia marcescens ATCC 13880 in presence of DM1 at pH 6.9. It is filed as functional. To be noted: subsp. marcescens ATCC 13880.
For test [19], the system named is Klebsiella aerogenes. Put plainly: Antibacterial activity against Enterobacter aerogenes ATCC 13048 in presence of DM1 at pH 7.2. The format is functional.
Test [20] concerns Cronobacter sakazakii. Put plainly: Antibacterial activity against Cronobacter sakazakii ATCC 29544 in presence of DM1 at pH 7.2. It is filed as functional.
Test [21] relates to Klebsiella pneumoniae. Put plainly: Antibacterial activity against Klebsiella pneumoniae ATCC 13882 in presence of DM1 at pH 7.2. It is filed as functional.
The test system of test [22] is Proteus mirabilis. The test can be described thus: Antibacterial activity against Proteus mirabilis ATCC 14253 in presence of DM1 at pH 7.2. It is filed as functional.
The subject of test [23] is Pseudomonas aeruginosa. Put plainly: Antibacterial activity against Pseudomonas aeruginosa ATCC 27853 in presence of DM1 at pH 7.2. The format is functional.
Test [24] deals with Salmonella typhimurium. The test can be described thus: Antibacterial activity against Salmonella enterica serovar Typhimurium ATCC 14028 in presence of DM1 at pH 7.2. It is filed as functional, Salmonella enterica subsp. enterica serovar Typhimurium.
Test [25] in a line: Antibacterial activity against Salmonella enterica serovar Virchow ATCC 5742 in presence of DM1 at pH 7.2. The format is functional, Salmonella enterica subsp. enterica serovar Virchow.
The subject of test [26] is Serratia marcescens. The test can be described thus: Antibacterial activity against Serratia marcescens ATCC 13880 in presence of DM1 at pH 7.2. It is filed as functional. The following applies: subsp. marcescens ATCC 13880.
For test [27], the system named is Klebsiella aerogenes. Put plainly: Antibacterial activity against Enterobacter aerogenes ATCC 13048 in presence of DM1 and glucose at pH 7.2. It is filed as functional.
Test [28] relates to Cronobacter sakazakii. The test can be described thus: Antibacterial activity against Cronobacter sakazakii ATCC 29544 in presence of DM1 and glucose at pH 7.2. The format is functional.
For test [29], the system named is Klebsiella pneumoniae. The test can be described thus: Antibacterial activity against Klebsiella pneumoniae ATCC 13882 in presence of DM1 and glucose at pH 7.2. It is filed as functional.
In test [30] the test system is Proteus mirabilis. Put plainly: Antibacterial activity against Proteus mirabilis ATCC 14253 in presence of DM1 and glucose at pH 7.2. The format is functional.
For test [31], the system named is Pseudomonas aeruginosa. Put plainly: Antibacterial activity against Pseudomonas aeruginosa ATCC 27853 in presence of DM1 and glucose at pH 7.2. The format is functional.
In test [32] the test system is Salmonella typhimurium. The test can be described thus: Antibacterial activity against Salmonella enterica serovar Typhimurium ATCC 14028 in presence of DM1 and glucose at pH 7.2. The format is functional, Salmonella enterica subsp. enterica serovar Typhimurium.
The nature of test [33]: Antibacterial activity against Salmonella enterica serovar Virchow ATCC 5742 in presence of DM1 and glucose at pH 7.2. The format is functional, Salmonella enterica subsp. enterica serovar Virchow.
For test [34], the system named is Serratia marcescens. Put plainly: Antibacterial activity against Serratia marcescens ATCC 13880 in presence of DM1 and glucose at pH 7.2. To be noted: subsp. marcescens ATCC 13880. The format is functional.
The subject of test [35] is Klebsiella aerogenes. Put plainly: Antibacterial activity against Enterobacter aerogenes ATCC 13048 in presence of NB2 medium at pH 7.2. The format is functional.
For test [36], the system named is Cronobacter sakazakii. The test can be described thus: Antibacterial activity against Cronobacter sakazakii ATCC 29544 in presence of NB2 medium at pH 7.2. The format is functional.
Test [37] concerns Klebsiella pneumoniae. The test can be described thus: Antibacterial activity against Klebsiella pneumoniae ATCC 13882 in presence of NB2 medium at pH 7.2. The format is functional.
Test [38] deals with Proteus mirabilis. The test can be described thus: Antibacterial activity against Proteus mirabilis ATCC 14253 in presence of NB2 medium at pH 7.2. The format is functional.
Test [39] relates to Pseudomonas aeruginosa. The test can be described thus: Antibacterial activity against Pseudomonas aeruginosa ATCC 27853 in presence of NB2 medium at pH 7.2. The format is functional.
The subject of test [40] is Salmonella typhimurium. The test can be described thus: Antibacterial activity against Salmonella enterica serovar Typhimurium ATCC 14028 in presence of NB2 medium at pH 7.2. It is filed as functional, Salmonella enterica subsp. enterica serovar Typhimurium.
Test [41] in a line: Antibacterial activity against Salmonella enterica serovar Virchow ATCC 5742 in presence of NB2 medium at pH 7.2. The format is functional, Salmonella enterica subsp. enterica serovar Virchow.
The test system of test [42] is Serratia marcescens. The test can be described thus: Antibacterial activity against Serratia marcescens ATCC 13880 in presence of NB2 medium at pH 7.2. The format is functional. The following applies: subsp. marcescens ATCC 13880.

In the case of `C[C@H](NC(=O)O[C@@H]1O[C@H](CO)[C@H](O)[C@H](O)[C@H]1O)P(=O)(O)O`, the result in test [1], in [4], in test [5], in test [6], in test [7] and in test [8] was inactive. Besides, the outcome in test [9] and in [10] was inactive. The outcome in test [2] and in [3] was Active.
`C[C@H](NC(=O)O[C@@H]1O[C@H](CO)[C@@H](O)[C@H](O)[C@H]1O)P(=O)(O)O`: the minimum inhibitory concentration (MIC) (as a rule, the least concentration at which growth counts as inhibited) in [11] was < 0.75 µg/mL; in [12], > 1 µg/mL; in [13], > 1 µg/mL; in [14] it was < 0.75 µg/mL; in test [15] it was < 0.75 µg/mL; in [16], > 1 µg/mL. Moreover, the MIC was > 1 µg/mL in test [17]; < 0.75 µg/mL in test [18]; > 1 µg/mL in test [19]; < 0.75 µg/mL in test [20]; > 1 µg/mL in test [21]; > 1 µg/mL in [22]. In addition, the MIC was < 0.75 µg/mL in [23]; > 1 µg/mL in [24]; > 1 µg/mL in test [25]; 1 µg/mL in test [26]; 1 µg/mL in test [27]; < 0.75 µg/mL in test [28]. Moreover, the MIC is 1 µg/mL in [29]; > 1 µg/mL in [30]; 1 µg/mL in [31]; > 1 µg/mL in [32]; > 1 µg/mL in test [33]; 1 µg/mL in test [34]. In addition, the minimal inhibitory concentration (MIC) in test [35] was > 1 µg/mL; in [36], 1 µg/mL; in test [37], > 1 µg/mL; in test [38], > 1 µg/mL; in test [39] it was 1 µg/mL; in test [40], > 1 µg/mL. The MIC in test [41] and in test [42] was > 1 µg/mL in each case.
